Values of other authors in patent US20100197018A1, “USE OF SUBSTRATES AS PHARMACOLOGICAL CHAPERONES” (AMICUS THERAPEUTICS, INC., priority 2007, published 2010).
Read-outs that look alike come from different tables or passages of the source. Marks after values point to notes of the source that are not given here.

Experiments:
[1] = biological target: T1, N-acetyl-glucosamine-6-sulfate sulfatase (6S) Form B (Homo sapiens, UniProt P15586)
T1 sequence (P15586 37-552): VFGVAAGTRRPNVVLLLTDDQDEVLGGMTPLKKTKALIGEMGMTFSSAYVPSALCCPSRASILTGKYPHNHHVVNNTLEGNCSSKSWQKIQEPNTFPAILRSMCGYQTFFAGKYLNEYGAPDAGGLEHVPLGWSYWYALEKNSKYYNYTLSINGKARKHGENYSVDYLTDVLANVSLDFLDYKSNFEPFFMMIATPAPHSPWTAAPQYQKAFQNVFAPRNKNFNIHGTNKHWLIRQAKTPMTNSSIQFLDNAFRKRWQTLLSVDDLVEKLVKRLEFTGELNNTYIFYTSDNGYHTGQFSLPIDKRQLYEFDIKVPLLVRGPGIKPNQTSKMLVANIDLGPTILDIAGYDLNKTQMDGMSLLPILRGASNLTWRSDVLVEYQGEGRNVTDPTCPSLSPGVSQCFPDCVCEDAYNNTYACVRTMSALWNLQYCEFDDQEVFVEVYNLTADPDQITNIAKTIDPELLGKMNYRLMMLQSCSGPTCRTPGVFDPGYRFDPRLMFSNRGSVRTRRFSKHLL

[2] = biological target: T2, N-acetyl-glucosamine-6-sulfate sulfatase (6S) Form A (Homo sapiens, UniProt P15586); conditions: for Relative catalytic efficiency*: kcat./Km calculated relative to a value for GlcNAc6S = 1; for pH optimum: Table 6; for Ratio of catalytic efficiencies: form A/form B: form A over form B; for Relative catalytic efficiency*, value in parentheses: relative to GlcNAc6S = 1
T2 sequence (P15586 37-552): T1 sequence (P15586 37-552)

BACEI = BACEI (Homo sapiens, UniProt P56817); conditions: low concentrations
BACEI, sequence (P56817 46-457 limits assumed): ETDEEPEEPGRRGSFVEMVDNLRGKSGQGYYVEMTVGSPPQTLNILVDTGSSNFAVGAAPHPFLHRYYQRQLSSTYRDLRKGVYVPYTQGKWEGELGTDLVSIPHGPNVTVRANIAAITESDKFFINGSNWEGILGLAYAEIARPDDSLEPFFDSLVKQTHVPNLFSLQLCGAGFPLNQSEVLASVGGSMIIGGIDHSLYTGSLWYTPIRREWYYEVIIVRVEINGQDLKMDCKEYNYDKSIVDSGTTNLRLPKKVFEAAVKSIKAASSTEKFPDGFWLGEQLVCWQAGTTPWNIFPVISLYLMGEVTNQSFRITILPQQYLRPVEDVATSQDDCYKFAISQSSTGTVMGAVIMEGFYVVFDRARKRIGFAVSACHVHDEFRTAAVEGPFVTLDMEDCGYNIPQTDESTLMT

[3] = in vivo
heparan-N-sulfatase = biological target: T3, heparan-N-sulfatase (Homo sapiens, UniProt P51688); conditions: for Relative catalytic efficiency*: GlcNS = 1.00
T3 sequence (P51688 21-502): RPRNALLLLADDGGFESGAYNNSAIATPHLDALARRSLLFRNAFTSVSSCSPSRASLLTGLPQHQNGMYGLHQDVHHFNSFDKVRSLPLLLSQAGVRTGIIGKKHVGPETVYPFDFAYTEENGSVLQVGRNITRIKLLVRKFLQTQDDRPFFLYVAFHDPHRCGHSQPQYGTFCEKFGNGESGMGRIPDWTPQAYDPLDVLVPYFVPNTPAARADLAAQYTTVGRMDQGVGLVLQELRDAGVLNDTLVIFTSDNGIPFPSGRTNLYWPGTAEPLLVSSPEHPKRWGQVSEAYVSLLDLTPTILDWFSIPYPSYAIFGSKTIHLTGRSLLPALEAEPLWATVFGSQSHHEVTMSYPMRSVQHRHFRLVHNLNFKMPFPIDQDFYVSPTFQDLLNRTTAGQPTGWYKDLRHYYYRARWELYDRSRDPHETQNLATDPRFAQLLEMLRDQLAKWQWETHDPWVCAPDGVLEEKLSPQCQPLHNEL

[4] = second line of the substrate, parentheses not explained, read-out: Km, value in parentheses
[5] = Form A, parentheses not explained
[6] = Form A, second line of the substrate, parentheses not explained
[7] = Form A, second line of the substrate, parentheses not explained, read-out: Km, value in parentheses
[8] = second line of the substrate, parentheses not explained
[9] = 37°, pH: GlcNS-Ido 6.7, GlcNS-Ido2S 5.5, GlcNS-IdOA 5.6, GlcNS-IdoA-GlcNS-IdOA 5.6, GlcNS-IdoA2S-anM6S 3.6, GlcNS6S-Ido 4.2, GlcNS6S-Ido2S 3.8, GlcNS6S-IdOA 4.2
[10] = 37°, pH 5.6 (second line of the substrate)
[11] = values marked † (60° C. per footnote), pH: GlcNS 5.6, GalNS 5.6, GlcNS-IdOA 5.4

Km ([1]; read-out: Km)	pH optimum of 6S activity [2]	kcat. (turnover number) ([2]; Form A)	Relative catalytic efficiency* ([2]; Form A)	Km ([2]; Form A, read-out: Km)	pH optimum [2]	Ratio of catalytic efficiencies: form A/form B [2]	Relative catalytic efficiency* (heparan-N-sulfatase; 37°, pH (optimum))	Km (heparan-N-sulfatase; [9])	kcat. (turnover number) (heparan-N-sulfatase; [9])	Compound	also measured
10 µM	5.7	0.165 mol/min per mol of enzyme	1.0	7.1 µM	5.7	2.1	–	–	–	CC(=O)N[C@H]1C(O)O[C@H](COS(=O)(=O)O)[C@@H](O)[C@@H]1O (stereo partly drawn) [GlcNAc6S, N-acetyl-glucosamine 6-sulfate]	decrease in the Km ([2]; addition of a 2-acetamido group to Glc6S): 6-9 fold; effect on Kcat ([2]; relative to the parent substrate (Glc6S for GlcNAc6S; GlcNAc6S for GlcNAc6S-Ido)): decrease in Kcat
–	–	–	–	–	–	–	–	–	–	heparin	effect on partially active BACEI (BACEI): stimulate partially active BACEI
–	–	–	–	–	–	–	–	–	–	heparan sulphate	oral activity [3]: orally active
14.3 µM	5.0	7.90 mol/min per mol of enzyme	31	11.1 µM	5.0	2.4	–	–	–	CC(=O)N[C@H]1[C@@H](O[C@@H]([C@H](O)[C@@H](O)CO)[C@@H](O)C(=O)O)O[C@H](COS(=O)(=O)O)[C@@H](O)[C@@H]1O [GlcNAc6S-IdOA, O-(α-N-acetylglucosamine 6-sulphate)-(1-3)-L-idonic acid]	Km [1, 4]: 13.2 µM; Relative catalytic efficiency*, value in parentheses [2, 5]: (29); kcat. (turnover number), value in parentheses [2, 6]: (6.79) mol/min per mol of enzyme; Km [2, 7]: 10 µM; Ratio of catalytic efficiencies: form A/form B, value in parentheses [2, 8]: (2.8); pH optimum, value in parentheses [2, 8]: (5.0)
62.5 µM	5.7	0.585 mol/min per mol of enzyme	0.4	62.5 µM	5.7	1.3	–	–	–	O=C[C@H](O)[C@@H](O)[C@H](O)[C@H](O)COS(=O)(=O)O [Glc6S, glucose 6-sulfate]	Kcat [2]: 0.585 mol/min/mol enzyme; Km ([2]; read-out: Km): 62.5 µM
9.2 µM	–	0.518 mol/min per mol of enzyme	2.1	10.8 µM	4.8	1.9	28	3 µM	0.061 mol/min per mol of enzyme	O=C[C@H](O)[C@@H](O)[C@H](O[C@H]1O[C@H](COS(=O)(=O)O)[C@@H](O)[C@H](O)[C@H]1NS(=O)(=O)O)[C@@H](O)CO [GlcNS6S-Ido, O-(α-2-sulphaminoglucosamine 6-sulphate)-(1-4)-L-idose]	–
8.3 µM	–	2.46 mol/min per mol of enzyme	13	8 µM	5.0	2.2	33	2.5 µM	0.105 mol/min per mol of enzyme	O=C(O)[C@H](O)[C@@H](O[C@H]1O[C@H](COS(=O)(=O)O)[C@@H](O)[C@H](O)[C@H]1NS(=O)(=O)O)[C@H](O)[C@@H](O)CO [GlcNS6S-IdOA, O-(α-2-sulphaminoglucosamine 6 sulphate)-(1-3)-L-idonic acid]	Km [1, 4]: 6.6 µM; Relative catalytic efficiency*, value in parentheses [2, 5]: (9.8); kcat. (turnover number), value in parentheses [2, 6]: (1.725) mol/min per mol of enzyme; Km [2, 7]: 7.6 µM; Ratio of catalytic efficiencies: form A/form B, value in parentheses [2, 8]: (2.5); pH optimum, value in parentheses [2, 8]: (5.0); Km (heparan-N-sulfatase; [10]): 2.4 µM; kcat. (turnover number) (heparan-N-sulfatase; [10]): 0.088 mol/min per mol of enzyme; Relative catalytic efficiency* (heparan-N-sulfatase; [10]): 50
–	–	–	–	–	–	–	67193	3.8 µM	186 mol/min per mol of enzyme	O=C(O)[C@@H]1O[C@@H](O[C@H]2[C@H](O)[C@@H](CO)O[C@@H]2COS(=O)(=O)O)[C@H](OS(=O)(=O)O)[C@@H](O)[C@@H]1O[C@H]1O[C@H](CO)[C@@H](O)[C@H](O)[C@H]1NS(=O)(=O)O [GlcNS-IdoA2S-anM6S, O-α-2-sulphaminoglucosamine)-(1-4) O-L-(α-iduronic-acid 2-sulphate)-(1-4)-O-D-(2,5)-anhydro-mannitol 6-sulphate]	Km (heparan-N-sulfatase; [10]): 5.3 µM; kcat. (turnover number) (heparan-N-sulfatase; [10]): 117 mol/min per mol of enzyme; Relative catalytic efficiency* (heparan-N-sulfatase; [10]): 30237
–	–	–	–	–	–	–	–	–	–	2-sulphoamino-glucosamine [GlcNS]	kcat. (turnover number), value in parentheses (heparan-N-sulfatase; in parentheses under the † value, parentheses not explained, pH 5.6): (0.0005) mol/min per mol of enzyme; pH optimum of the enzyme for the substrate (heparan-N-sulfatase; purified enzyme): 5.6; Relative catalytic efficiency* (heparan-N-sulfatase; rows whose other values are marked †): 1.00; Km (heparan-N-sulfatase; [11]): 0.7 µM; kcat. (turnover number) (heparan-N-sulfatase; [11]): 0.0021† mol/min per mol of enzyme
–	–	0.201 mol/min per mol of enzyme	3.8	2.3 µM	4.2	–	388	4.1 µM	3.333 mol/min per mol of enzyme	O=C[C@H](OS(=O)(=O)O)[C@@H](O)[C@H](O[C@H]1O[C@H](COS(=O)(=O)O)[C@@H](O)[C@H](O)[C@H]1NS(=O)(=O)O)[C@@H](O)CO [GlcNS6S-Ido2S, O-(α-2-sulphaminoglucosamine 6-sulphate)-(1-4)-L-idose 2-sulphate]	–
